# Measured values taken from patent US5753715A, “2-disubstituted cyclohexenyl and cyclohexyl antimicrobial agents” (Ortho Pharmaceutical Corporation, priority 1995, dated 1998).
# Experiments:
# Kinase A and SpoOF = biological target: T1, Kinase A and SpoOF (Bacillus subtilis, UniProt P16497); assay: Autophosphorylation of Kinase A and Transphosphorylation of SPoOF Assay; type: biochemical; settings: inhibition of Kinase A autophosphorylation / SpoOF transphosphorylation, [32P]ATP, gel, phosphoimager
# T1 sequence (P16497 1-606): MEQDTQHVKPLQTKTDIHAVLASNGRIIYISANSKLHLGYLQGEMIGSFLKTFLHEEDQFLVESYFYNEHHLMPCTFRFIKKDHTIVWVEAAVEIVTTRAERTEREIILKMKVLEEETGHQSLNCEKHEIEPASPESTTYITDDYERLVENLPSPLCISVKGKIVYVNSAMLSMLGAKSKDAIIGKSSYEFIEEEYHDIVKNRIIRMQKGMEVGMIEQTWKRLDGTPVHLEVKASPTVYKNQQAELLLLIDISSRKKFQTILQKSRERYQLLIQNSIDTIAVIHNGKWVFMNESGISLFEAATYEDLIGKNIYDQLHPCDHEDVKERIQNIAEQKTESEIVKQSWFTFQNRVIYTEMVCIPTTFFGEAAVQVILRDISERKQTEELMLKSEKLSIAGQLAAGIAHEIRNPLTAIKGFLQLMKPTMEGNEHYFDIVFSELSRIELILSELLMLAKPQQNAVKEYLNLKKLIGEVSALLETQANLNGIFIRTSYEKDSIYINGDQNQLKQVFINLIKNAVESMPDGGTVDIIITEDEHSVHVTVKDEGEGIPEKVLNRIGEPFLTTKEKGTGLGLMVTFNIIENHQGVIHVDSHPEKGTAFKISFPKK
# A. niger 10578 = assay: MIC, microdilution broth method (NCCLS); type: cell-based; settings: cation supplemented Mueller Hinton broth, 35° C., 16-20 hours; unit assumed
# Method: (§1) The in vitro antimicrobial spectrum of the compounds of the present invention were determined by the microdilution broth method following the test method from the National Committee for […] (NCCLS ). The method is described in the NCCLS Document M7-A2, Vol. 10, No.8 "Methods for Dilution Antimicrobial Susceptibility Test for Bacteria that Grow Aerobically--Second Edition".
# (§2) In this method two fold serial dilutions of drug in cation supplemented Mueller Hinton broth are added to wells in microdilution trays. The test organisms are prepared by adjusting the turbidity of actively growing broth cultures so that the final concentration of test organism after it is added to the wells is approximately 5×10^4 colony forming units per well delivered by the Steers replicating device.
# (§3) Following inoculation of the microdilution trays, the trays are incubated at 35° C. for 16-20 hours and then read. […] The amount of growth in the wells containing the test compound is compared with the amount of growth in the growth-control wells used in each tray.
# C. albicans 10231 = assay: MIC, microdilution broth method (NCCLS); type: cell-based; settings: cation supplemented Mueller Hinton broth, 35° C., 16-20 hours; unit assumed
# Method: as §1, §2, §3
# C. tropicalis = assay: MIC, microdilution broth method (NCCLS); type: cell-based; settings: cation supplemented Mueller Hinton broth, 35° C., 16-20 hours; unit assumed
# Method: as §1, §2, §3
# E. coli oc2530 = assay: MIC, microdilution broth method (NCCLS); type: cell-based; settings: cation supplemented Mueller Hinton broth, 35° C., 16-20 hours; unit assumed
# Method: as §1, §2, §3
# E. coli oc2605 = assay: MIC, microdilution broth method (NCCLS); type: cell-based; settings: cation supplemented Mueller Hinton broth, 35° C., 16-20 hours; unit assumed
# Method: as §1, §2, §3
# E. faecalis ACTCC 29212 = assay: MIC, microdilution broth method (NCCLS); type: cell-based; settings: cation supplemented Mueller Hinton broth, 35° C., 16-20 hours; unit assumed
# Method: as §1, §2, §3
# E. faecalis oc3041 = assay: MIC, microdilution broth method (NCCLS); type: cell-based; settings: cation supplemented Mueller Hinton broth, 35° C., 16-20 hours; unit assumed
# Method: as §1, §2, §3
# E. faecium oc2993 = assay: MIC, microdilution broth method (NCCLS); type: cell-based; settings: cation supplemented Mueller Hinton broth, 35° C., 16-20 hours; unit assumed
# Method: as §1, §2, §3
# K. pneum. oc1943 = assay: MIC, microdilution broth method (NCCLS); type: cell-based; settings: cation supplemented Mueller Hinton broth, 35° C., 16-20 hours; unit assumed
# Method: as §1, §2, §3
# MRSA oc2089 = assay: MIC, microdilution broth method (NCCLS); type: cell-based; settings: cation supplemented Mueller Hinton broth, 35° C., 16-20 hours; unit assumed
# Method: as §1, §2, §3
# MRSA oc667 = assay: MIC, microdilution broth method (NCCLS); type: cell-based; settings: cation supplemented Mueller Hinton broth, 35° C., 16-20 hours; unit assumed
# Method: as §1, §2, §3
# Ps. aerug. oc161 = assay: MIC, microdilution broth method (NCCLS); type: cell-based; settings: cation supplemented Mueller Hinton broth, 35° C., 16-20 hours; unit assumed
# Method: as §1, §2, §3
# Ps. aerug. oc27853 = assay: MIC, microdilution broth method (NCCLS); type: cell-based; settings: cation supplemented Mueller Hinton broth, 35° C., 16-20 hours; unit assumed
# Method: as §1, §2, §3
# S. aureus ATCC 29213 = assay: MIC, microdilution broth method (NCCLS); type: cell-based; settings: cation supplemented Mueller Hinton broth, 35° C., 16-20 hours; unit assumed
# Method: as §1, §2, §3
# S. epi oc2603 = assay: MIC, microdilution broth method (NCCLS); type: cell-based; parameters: unit not given here; settings: cation supplemented Mueller Hinton broth, 35° C., 16-20 hours
# Method: as §1, §2, §3
Structure (SMILES),IC50 (Kinase A and SpoOF),IC min (Kinase A and SpoOF),MIC A. niger 10578 (A. niger 10578),MIC C. albicans 10231 (C. albicans 10231),MIC C. tropicalis (C. tropicalis),MIC E. coli oc2530 (E. coli oc2530),MIC E. coli oc2605 (E. coli oc2605),MIC E. faecalis ACTCC 29212 (E. faecalis ACTCC 29212),MIC E. faecalis oc3041 (E. faecalis oc3041),MIC E. faecium oc2993 (E. faecium oc2993),MIC K. pneum. oc1943 (K. pneum. oc1943),MIC MRSA oc2089 (MRSA oc2089),MIC MRSA oc667 (MRSA oc667),MIC Ps. aerug. oc161 (Ps. aerug. oc161),MIC Ps. aerug. oc27853 (Ps. aerug. oc27853),MIC S. aureus ATCC 29213 (S. aureus ATCC 29213),MIC S. epi oc2603 (S. epi oc2603)
C1=CC(CCOc2ccc(CCCNCCN3CCCC3)cc2)(Cc2ccccc2)CCC1 (stereo not drawn) [Compound 3],159 mM,31.25 mM,4 µg/mL,> 64 µg/mL,8 µg/mL,8 µg/mL,16 µg/mL,8 µg/mL,8 µg/mL,8 µg/mL,32 µg/mL,8 µg/mL,8 µg/mL,> 64 µg/mL,> 64 µg/mL,8 µg/mL,8
NCCc1ccc(OCCC2(Cc3ccccc3)C=CCCC2)cc1 (stereo not drawn) [Compound 17],38.3 mM,15.6 mM,4 µg/mL,≤ 16 µg/mL,4 µg/mL,8 µg/mL,64 µg/mL,8 µg/mL,8 µg/mL,8 µg/mL,> 64 µg/mL,8 µg/mL,8 µg/mL,> 64 µg/mL,> 64 µg/mL,8 µg/mL,8
CNCCCc1ccc(OCCC2(c3ccc(F)cc3)C=CCCC2)cc1 (stereo not drawn) [Compound 24],185 mM,125 mM,4 µg/mL,8 µg/mL,8 µg/mL,8 µg/mL,> 64 µg/mL,8 µg/mL,8 µg/mL,8 µg/mL,> 128 µg/mL,8 µg/mL,8 µg/mL,> 128 µg/mL,> 128 µg/mL,8 µg/mL,8
"CC1COc2c(N3CCN(C)CC3)c(F)cc3c(=O)c(C(=O)O)cn1c23 (stereo not drawn) [OFX, reference compound]",–,–,> 128 µg/mL,> 128 µg/mL,> 128 µg/mL,≤ 0.12 µg/mL,≤ 0.12 µg/mL,2 µg/mL,2 µg/mL,4 µg/mL,0.25 µg/mL,4 µg/mL,0.5 µg/mL,2 µg/mL,8 µg/mL,0.5 µg/mL,2
